Reference: US10814019B2, “MRI signal suppression agents, compositions, and methods” (University of Washington, priority 2014, dated 2020)

Legend:
[1] = mDixon signal intensity of whole venous blood samples containing Ablavar; type: physicochemical
Method: Six in vitro whole venous blood samples each contained a different concentration (0, 2, 4, 6, 8, and 12 mM) of gadofosveset trisodium (Ablavar). For long echo time pairs (e.g., 11.5 ms/12.7 ms), the signal intensity decreased rapidly with Ablavar concentration greater than about 4 mM.

[2] = in vivo; cited from earlier work

Structure (SMILES): O=C([O-])CN(CCN(CC(=O)[O-])CC(COP(=O)([O-])OC1CCC(c2ccccc2)(c2ccccc2)CC1)N(CC(=O)[O-])CC(=O)[O-])CC(=O)[O-].[Gd+3].[Na+].[Na+].[Na+] (stereo not drawn) [Ablavar, gadofosveset trisodium]
- signal intensity relative to pure blood ([1]; 12 mM Ablavar, echo times as short as 6.9 ms/8.1 ms): below that of pure blood
- Ablavar concentration above which signal intensity decreased rapidly ([1]; long echo time pairs (e.g., 11.5 ms/12.7 ms)): greater than 4 mM
- half-life [2]: about 30 minutes
